In the supplement of paper PMC10307832:

Key:
Assay in all cases: relative viability (nuclei count vs DMSO), 5 days (fraction); higher = more cells survive
NCI-H1650 = tested on: NCI-H1650
How it was run: (§1)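 Dosing by pin tool came one day after lung cancer cell lines were seeded in 1536-well plates, using either one drug or a fixed anchor-drug dose plus five library-drug doses (not always all listed) in √10 steps. After 5 days, nuclei were counted on 4× images. Relative viability is treated-well nuclei count divided by vehicle-well nuclei count, and values are medians of duplicate plates.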

HCC-44 = tested on: HCC-44
How it was run: as §1

NCI-H460 = tested on: NCI-H460
How it was run: as §1

LU99A = tested on: LU99A
How it was run: as §1

LCLC-97TM1 = tested on: LCLC-97TM1
How it was run: as §1

201T = tested on: 201T
How it was run: as §1

COR-L23 = tested on: COR-L23
How it was run: as §1

LK-2 = tested on: LK-2
How it was run: as §1

SW 1573 = tested on: SW 1573
How it was run: as §1

NCI-H727 = tested on: NCI-H727
How it was run: as §1

H3255 = tested on: H3255
How it was run: as §1

NCI-H596 = tested on: NCI-H596
How it was run: as §1

LC-2-ad = tested on: LC-2-ad
How it was run: as §1

LCLC-103H = tested on: LCLC-103H
How it was run: as §1

NCI-H1563 = tested on: NCI-H1563
How it was run: as §1

A-427 = tested on: A-427
How it was run: as §1

NCI-H23 = tested on: NCI-H23
How it was run: as §1

NCI-H2347 = tested on: NCI-H2347
How it was run: as §1

PC-14 = tested on: PC-14
How it was run: as §1

NCI-H2228 = tested on: NCI-H2228
How it was run: as §1

Nc1ccn([C@@H]2O[C@H](CO)[C@@H](O)[C@@H]2O)c(=O)n1 [Cytarabine] + C[C@@H](Oc1cc(-c2cnn(C3CCNCC3)c2)cnc1N)c1c(Cl)ccc(F)c1Cl [Crizotinib] (partner 1 µM)
relative viability (NCI-H1650; first compound 0.005 µM): 0.752
relative viability (NCI-H1650; first compound 0.01581 µM): 1.05
relative viability (NCI-H1650; first compound 0.05 µM): 0.544
relative viability (NCI-H1650; first compound 0.1581 µM): 0.315
relative viability (NCI-H1650; first compound 0.5 µM): 0.188
relative viability (HCC-44; first compound 0.005 µM): 0.776
relative viability (HCC-44; first compound 0.01581 µM): 0.831
relative viability (HCC-44; first compound 0.05 µM): 0.626
relative viability (HCC-44; first compound 0.1581 µM): 0.383
relative viability (HCC-44; first compound 0.5 µM): 0.378
relative viability (NCI-H460; first compound 0.005 µM): 0.77
relative viability (NCI-H460; first compound 0.01581 µM): 0.851
relative viability (NCI-H460; first compound 0.05 µM): 0.144
relative viability (NCI-H460; first compound 0.1581 µM): 0.0229
relative viability (NCI-H460; first compound 0.5 µM): 0.0238
relative viability (LU99A; first compound 0.005 µM): 0.62
relative viability (LU99A; first compound 0.01581 µM): 0.549
relative viability (LU99A; first compound 0.05 µM): 0.517
relative viability (LU99A; first compound 0.1581 µM): 0.527
relative viability (LU99A; first compound 0.5 µM): 0.498
relative viability (LCLC-97TM1; first compound 0.005 µM): 0.487
relative viability (LCLC-97TM1; first compound 0.01581 µM): 0.213
relative viability (LCLC-97TM1; first compound 0.05 µM): 0.181
relative viability (LCLC-97TM1; first compound 0.1581 µM): 0.115
relative viability (LCLC-97TM1; first compound 0.5 µM): 0.106
relative viability (201T; first compound 0.005 µM): 1.04
relative viability (201T; first compound 0.01581 µM): 0.999
relative viability (201T; first compound 0.05 µM): 1.01
relative viability (201T; first compound 0.1581 µM): 0.97
relative viability (201T; first compound 0.5 µM): 1
relative viability (COR-L23; first compound 0.005 µM): 0.578
relative viability (COR-L23; first compound 0.01581 µM): 0.631
relative viability (COR-L23; first compound 0.05 µM): 0.405
relative viability (COR-L23; first compound 0.1581 µM): 0.166
relative viability (COR-L23; first compound 0.5 µM): 0.122
relative viability (LK-2; first compound 0.005 µM): 0.262
relative viability (LK-2; first compound 0.01581 µM): 0.305
relative viability (LK-2; first compound 0.05 µM): 0.208
relative viability (LK-2; first compound 0.1581 µM): 0.196
relative viability (LK-2; first compound 0.5 µM): 0.205
relative viability (SW 1573; first compound 0.005 µM): 0.83
relative viability (SW 1573; first compound 0.01581 µM): 0.868
relative viability (SW 1573; first compound 0.05 µM): 0.864
relative viability (SW 1573; first compound 0.1581 µM): 0.412
relative viability (SW 1573; first compound 0.5 µM): 0.179
relative viability (NCI-H727; first compound 0.005 µM): 0.724
relative viability (NCI-H727; first compound 0.01581 µM): 0.579
relative viability (NCI-H727; first compound 0.05 µM): 0.636
relative viability (NCI-H727; first compound 0.1581 µM): 0.359
relative viability (NCI-H727; first compound 0.5 µM): 0.3
relative viability (H3255; first compound 0.005 µM): 0.76
relative viability (H3255; first compound 0.01581 µM): 0.828
relative viability (H3255; first compound 0.05 µM): 0.776
relative viability (H3255; first compound 0.1581 µM): 0.724
relative viability (H3255; first compound 0.5 µM): 0.667
relative viability (NCI-H596; first compound 0.005 µM): 0.889
relative viability (NCI-H596; first compound 0.01581 µM): 0.961
relative viability (NCI-H596; first compound 0.05 µM): 0.786
relative viability (NCI-H596; first compound 0.1581 µM): 0.614
relative viability (NCI-H596; first compound 0.5 µM): 0.743
relative viability (LC-2-ad; first compound 0.005 µM): 0.416
relative viability (LC-2-ad; first compound 0.01581 µM): 0.544
relative viability (LC-2-ad; first compound 0.05 µM): 0.453
relative viability (LC-2-ad; first compound 0.1581 µM): 0.341
relative viability (LC-2-ad; first compound 0.5 µM): 0.295
relative viability (LCLC-103H; first compound 0.005 µM): 0.942
relative viability (LCLC-103H; first compound 0.01581 µM): 1.03
relative viability (LCLC-103H; first compound 0.05 µM): 1.07
relative viability (LCLC-103H; first compound 0.1581 µM): 1.03
relative viability (LCLC-103H; first compound 0.5 µM): 0.977
relative viability (NCI-H1563; first compound 0.005 µM): 0.806
relative viability (NCI-H1563; first compound 0.01581 µM): 0.916
relative viability (NCI-H1563; first compound 0.05 µM): 0.852
relative viability (NCI-H1563; first compound 0.1581 µM): 0.809
relative viability (NCI-H1563; first compound 0.5 µM): 0.606
relative viability (A-427; first compound 0.005 µM): 0.605
relative viability (A-427; first compound 0.01581 µM): 0.414
relative viability (A-427; first compound 0.05 µM): 0.149
relative viability (A-427; first compound 0.1581 µM): 0.172
relative viability (A-427; first compound 0.5 µM): 0.173
relative viability (NCI-H23; first compound 0.005 µM): 0.458
relative viability (NCI-H23; first compound 0.01581 µM): 0.369
relative viability (NCI-H23; first compound 0.05 µM): 0.311
relative viability (NCI-H23; first compound 0.1581 µM): 0.226
relative viability (NCI-H23; first compound 0.5 µM): 0.209
relative viability (NCI-H2347; first compound 0.005 µM): 0.827
relative viability (NCI-H2347; first compound 0.01581 µM): 0.719
relative viability (NCI-H2347; first compound 0.05 µM): 0.573
relative viability (NCI-H2347; first compound 0.1581 µM): 0.642
relative viability (NCI-H2347; first compound 0.5 µM): 0.467
relative viability (PC-14; first compound 0.005 µM): 0.805
relative viability (PC-14; first compound 0.01581 µM): 0.84
relative viability (PC-14; first compound 0.05 µM): 0.778
relative viability (PC-14; first compound 0.1581 µM): 0.439
relative viability (PC-14; first compound 0.5 µM): 0.2
relative viability (NCI-H2228; first compound 0.005 µM): 0.373
relative viability (NCI-H2228; first compound 0.01581 µM): 0.31
relative viability (NCI-H2228; first compound 0.05 µM): 0.218
relative viability (NCI-H2228; first compound 0.1581 µM): 0.124
relative viability (NCI-H2228; first compound 0.5 µM): 0.151
